In article PMC4083273 (Bioscience Reports, 2014):

Assays:
[1] = target: T1, CobR (corrin reductase) (Brucella melitensis, UniProt Q8YHT7); settings: crystals grown with 2 mM FAD, pH 4.6; FAD in both active sites; second site (additional folded FAD per subunit)
T1 construct: gene BMEI0709

[2] = target: T1, CobR (corrin reductase); settings: reference without excess FAD 70 °C, 50 mM NaPi, 100 mM NaCl pH 6.5, 125°/h, irreversible unfolding

T1 sequence (Q8YHT7 1-173): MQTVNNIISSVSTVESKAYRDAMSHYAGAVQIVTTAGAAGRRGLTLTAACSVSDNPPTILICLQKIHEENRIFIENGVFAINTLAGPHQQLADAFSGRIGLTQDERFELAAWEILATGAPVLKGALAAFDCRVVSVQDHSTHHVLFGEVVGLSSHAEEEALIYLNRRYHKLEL

For `Cc1cc2nc3c(=O)[nH]c(=O)nc-3n(C[C@H](O)[C@H](O)[C@H](O)COP(=O)(O)OP(=O)(O)OC[C@H]3O[C@@H](n4cnc5c(N)ncnc54)[C@H](O)[C@@H]3O)c2cc1C` [FAD], the “X-ray crystallography, 2.2 Å” value [1] was “FAD is seen occupying both active sites of the homodimer” and the “apparent Tm with excess FAD” value [2] was 80 °C.
